Assay results as given in patent US9738636B2, “Fused heterocyclic compounds as selective BMP inhibitors” (Vanderbilt University, priority 2012, dated 2017).

System: BMP4
Assay: BMP4 cell assay (BMP reporter)
Type: cell-based
Conditions: series of scaffold drawing 183 (R, R1)

c1cc(-c2cnc3cc(-c4ccc5c(c4)OCCO5)ccn23)ccn1 [Example 6, 7-(2,3-dihydrobenzo[b][1,4]dioxin-6-yl)-3-(pyridin-4-yl)imidazo[1,2-a]pyridine] was tested, and the IC50 was 6.1 µM.
